For data set [1] the following is noted: Crystal; DTA.
The nature of data set [2]: Molar enthalpy of transition or fusion. Conditions: Crystal; DSC.

± gives the expanded uncertainty stated by the source.

Turning to `O=C(O)CCCCC(=O)O` [1,6-hexanedioic acid], the Normal melting temperature in data set [1] was 153.16 ± 0.53 °C. For the same compound, the “Molar enthalpy of transition or fusion” value in data set [2] is 8.46 ± 0.237 kcal/mol.
In the case of `O=C(O)CCCC(=O)O` [1,5-pentanedioic acid], the Normal melting temperature in data set [1] came out at 95.98 ± 0.53 °C. In data set [2], the “Molar enthalpy of transition or fusion” value turned out to be 5 ± 0.148 kcal/mol.
`O=C(O)c1ccccc1` [benzoic acid]: the Normal melting temperature in data set [1] amounted to 122.93 ± 0.53 °C. In data set [2], the “Molar enthalpy of transition or fusion” value was 4.31 ± 0.131 kcal/mol.

The values are drawn from the NIST ThermoML archive (doi:10.1021/je100749m).
